Assay results reported in paper PMC11258189, “Estrogenic, androgenic, and genotoxic activities of zearalenone and deoxynivalenol in in vitro bioassays including exogenous metabolic activation” (Mycotoxin Research, 2024).
Where two headings read alike, the source gives them in different places.

Tests used:
human androgen receptor [1] = target: T1, human androgen receptor (Homo sapiens, UniProt P10275); assay type: cell-based
T1 construct: host or cells: Chinese hamster ovary (CHO) cells, AR-EcoScreen GR KO M1, stably transfected, glucocorticoid receptor knocked out
T1 sequence (P10275 1-920): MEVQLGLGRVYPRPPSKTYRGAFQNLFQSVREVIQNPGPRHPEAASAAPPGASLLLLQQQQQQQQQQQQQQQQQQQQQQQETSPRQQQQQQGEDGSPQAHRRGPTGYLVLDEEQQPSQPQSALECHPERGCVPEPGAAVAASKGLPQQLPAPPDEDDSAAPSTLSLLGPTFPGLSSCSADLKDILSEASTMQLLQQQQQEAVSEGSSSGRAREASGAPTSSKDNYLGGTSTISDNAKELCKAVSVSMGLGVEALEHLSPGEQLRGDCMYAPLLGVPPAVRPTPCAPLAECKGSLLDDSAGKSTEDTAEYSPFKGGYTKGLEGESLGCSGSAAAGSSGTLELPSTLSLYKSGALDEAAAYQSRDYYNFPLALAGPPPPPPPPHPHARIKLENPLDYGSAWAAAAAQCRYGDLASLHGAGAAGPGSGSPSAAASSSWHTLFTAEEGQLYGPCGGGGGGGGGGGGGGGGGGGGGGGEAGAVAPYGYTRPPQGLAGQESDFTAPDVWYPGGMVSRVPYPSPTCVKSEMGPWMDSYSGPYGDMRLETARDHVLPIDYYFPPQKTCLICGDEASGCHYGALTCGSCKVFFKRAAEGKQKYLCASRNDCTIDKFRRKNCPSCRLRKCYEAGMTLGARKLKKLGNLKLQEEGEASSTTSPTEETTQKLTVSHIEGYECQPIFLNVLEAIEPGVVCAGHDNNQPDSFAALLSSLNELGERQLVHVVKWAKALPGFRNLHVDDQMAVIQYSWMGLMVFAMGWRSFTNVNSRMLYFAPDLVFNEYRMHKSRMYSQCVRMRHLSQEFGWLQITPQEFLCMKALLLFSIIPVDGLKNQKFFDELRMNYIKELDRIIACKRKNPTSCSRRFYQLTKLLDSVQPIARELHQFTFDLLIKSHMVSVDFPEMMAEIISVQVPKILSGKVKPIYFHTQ

estrogen receptor (ER) [2] = system: estrogen receptor (ER)
AR = system: AR; design: method as in Molina-Molina et al. [2014]; conditions: ref Molina-Molina et al. [2014], cited from earlier work
estrogen receptor (ER) [3] = assay type: cell-based, human
human androgen receptor [4] = target: T1, human androgen receptor; assay type: cell-based; remark: listed apart in the source
[5] = design: method as in Drzymala et al. [2014]; conditions: rat liver microsomes, presence of NADPH, after 60 min; ref Drzymala et al. [2014]; cited from earlier work
TK6 cells [6] = conditions: for Micronuclei formation (% MN) versus vehicle controls: 5 h exposure, alone, with S9 alone or S9 with cofactors, ZEN 6.25 and 12.50 µM, DON 0.78 and 1.56 µM; for Micronuclei formation (% MN) versus vehicle control: non-cytotoxic test concentrations
TK6 cells [7] = system: TK6 cells; design: method as in Takakura et al. [2014]; conditions: concentrations below 12.5 µM, 3 h of treatment, with or without human and rat liver S9; ref Takakura et al. [2014]; cited from earlier work
[8] = ZEN compounds, S9 + PHI + PHII cofactors, [95% CI]
[9] = ZEN compounds, S9 + PHI cofactors, [95% CI]
[10] = ZEN compounds, S9 alone, [95% CI]
[11] = ZEN compounds, no MAS, [95% CI]
[12] = without exogenous MAS, initial concentration-range finding trials, 24 h
[13] = 24 h continuous exposure, without MAS
[14] = DON compounds, S9 + PHI + PHII cofactors
[15] = DON compounds, S9 + PHII cofactors
[16] = DON compounds, S9 alone, [95% CI]
[17] = DON compounds, no MAS, [95% CI]
[18] = DON compounds, S9 + PHI + PHII cofactors, [95% CI]
[19] = DON compounds, S9 + PHII cofactors, [95% CI]

C[C@H]1CCCC(=O)CCC/C=C/c2cc(O)cc(O)c2C(=O)O1 [ZEN, zearalenone]
AR antagonism IC30 (human androgen receptor [1]; [8]): 18.0 [13.8,23.4] µM | AR antagonism IC30 (human androgen receptor [1]; [9]): 7.33 [6.31,8.13] µM | AR antagonism IC30 (human androgen receptor [1]; [10]): 2.14 [1.82,2.45] µM | AR antagonism IC30 (human androgen receptor [1]; [11]): 2.37 [1.95,2.75] µM | AR antagonism IC30 (human androgen receptor [1]; [12]): 3.30 µM | ER agonism EC10 (estrogen receptor (ER) [2]; [8]): 6470 pM | ER agonism EC10 (estrogen receptor (ER) [2]; [9]): 984 [740,1 279] pM | ER agonism EC10 (estrogen receptor (ER) [2]; [10]): 63.3 [56.2,97.2] pM | ER agonism EC10 (estrogen receptor (ER) [2]; ZEN compounds, no MAS (S9 −, PHI −, PHII −), [95% CI]): 46.5 [29.5,72.4] pM | ER agonism EC10 value range converted to a concentration range in a water sample (estrogen receptor (ER) [2]; converted from 30–40 pM): 0.01 to 0.012 ng/mL | ER agonism EC10 converted to concentration in a water sample enriched 50 times (estrogen receptor (ER) [2]; water sample enriched 50 times): approximately 0.2 ng/L | ER agonism EC10 (estrogen receptor (ER) [2]; [12]): 30 to 40 pM | ER agonism EC10 (estrogen receptor (ER) [2]; without exogenous MAS, initial concentration-range finding trials, 24 h, listed as Zearalenone (ZEN)): 34.07 pM | Androgenic activities (AR; PALM cells, 40 h of exposure, concentrations up to 10 µM): no androgenic activities were detected | AR antagonistic effect IC50 (AR; androgen-sensitive PALM cells): micromolar range | ER antagonism IC30 (estrogen receptor (ER) [3]; [9]): 10.3 [8.71,11.8] µM | ER antagonism IC30 (estrogen receptor (ER) [3]; [10]): 3.41 [2.40,4.68] µM | ER antagonism IC30 (estrogen receptor (ER) [3]; [11]): 2.92 [2.09,3.89] µM | ER antagonism IC30 (estrogen receptor (ER) [3]; [12]): 2.85 µM | AR agonism EC10 (human androgen receptor [4]; ZEN compounds, S9 + PHI + PHII cofactors): <LOD | AR agonism EC10 (human androgen receptor [4]; ZEN compounds, S9 + PHI cofactors): <LOD | AR agonism EC10 (human androgen receptor [4]; ZEN compounds, S9 alone): <LOD | AR agonism EC10 (human androgen receptor [4]; ZEN compounds, no MAS): <LOD | AR agonism EC10 (human androgen receptor [4]; [12]): <LOD | Decrease of substrate concentration to (% remaining) [5]: approximately 40% | Micronuclei formation (% MN) versus vehicle controls (TK6 cells [6]): neither ZEN nor DON alone or with the S9 alone or with cofactors had any statistically significant effect on % MN | Micronuclei formation (% MN) versus vehicle control (TK6 cells [6]; [13]): statistically significant increase in % MN | Test concentration with statistically significant increase in % MN (highest non-cytotoxic test concentration) (TK6 cells [6]; 24 h continuous exposure, without MAS, p-value of 0.0007): 12.5 µM

CC1=C[C@H]2O[C@@H]3[C@H](O)C[C@](C)([C@@]2(CO)[C@H](O)C1=O)[C@]31CO1 [DON, deoxynivalenol]
AR antagonism IC30 (human androgen receptor [1]; [14]): <LOD | AR antagonism IC30 (human androgen receptor [1]; [15]): <LOD | AR antagonism IC30 (human androgen receptor [1]; DON compounds, S9 alone): <LOD | AR antagonism IC30 (human androgen receptor [1]; DON compounds, no MAS): <LOD | AR antagonism IC30 (human androgen receptor [1]; [12]): <LOD | ER agonism EC10 (estrogen receptor (ER) [2]; [14]): <LOD | ER agonism EC10 (estrogen receptor (ER) [2]; [15]): <LOD | ER agonism EC10 (estrogen receptor (ER) [2]; [16]): <LOD | ER agonism EC10 (estrogen receptor (ER) [2]; [17]): <LOD | ER agonism EC10 (estrogen receptor (ER) [2]; [12]): <LOD | ER antagonism IC30 (estrogen receptor (ER) [3]; [18]): 0.37 [0.25,0.58] µM | ER antagonism IC30 (estrogen receptor (ER) [3]; [19]): 0.25 [0.18,0.38] µM | ER antagonism IC30 (estrogen receptor (ER) [3]; [16]): 0.75 [0.54,1.05] µM | ER antagonism IC30 (estrogen receptor (ER) [3]; [17]): 0.81 [0.69,1.00] µM | ER antagonism IC30 (estrogen receptor (ER) [3]; [12]): 0.91 µM | MN formations (TK6 cells [7]): did not induce any significant MN formations | AR agonism EC10 (human androgen receptor [4]; [18]): 0.45 [0.39,0.52] µM | AR agonism EC10 (human androgen receptor [4]; [19]): 0.38 [0.32,0.46] µM | AR agonism EC10 (human androgen receptor [4]; [16]): 0.84 [0.72,0.98] µM | AR agonism EC10 (human androgen receptor [4]; [17]): 0.87 [0.81,0.93] µM | AR agonism EC10 (human androgen receptor [4]; [12]): 0.83 µM | Micronuclei formation (% MN) versus vehicle controls (TK6 cells [6]): neither ZEN nor DON alone or with the S9 alone or with cofactors had any statistically significant effect on % MN | Micronuclei formation (% MN) versus vehicle control (TK6 cells [6]; [13]): No statistically significant increases in % MN
